Data set [1] in a line: Plasma protein binding assay (ultrafiltration, Centrifree). Type of data set: in vitro ADME. As to conditions: male SD rat plasma, n = 3. As to the method:
The plasma protein binding of FMN, DZN, DHD and EQL was estimated using Ultra-filtration method using Centrifree® micro-partition system (Amicon Inc., Lexington, MA, USA). The experiment was conducted at concentrations of 50, 150, 500 and 1000 ng/mL (n = 3) for all four compounds in male SD rat plasma. The spiked plasma samples were allowed to equilibrate for at least 15 min before it was put into Centrifree® ultrafiltration tubes. The tubes were centrifuged at 1000× g for 15 min at 37 °C. Then, compound concentrations in the ultrafiltrate buffer (CUF) and plasma in the sample reservoir (Ctotal) were quantitated by the anlytical method described in Section 2.3. The plasma protein binding rate was calculated using the following formula: Plasma protein binding (%)=[…]

A short description of data set [2]: Pharmacokinetic evaluation after oral administration of FMN solution and formulations (non-compartmental analysis). As to conditions: 20 mg/kg FMN, all three groups.
Protocol: The animals were maintained in the temperature and humidity range of 25 ± 1 °C and 50 ± 5% RH, respectively, over the acclimation period. To minimize the effects of food on pharmacokinetic profile of isoflavones, the animals were fasted overnight with free access to water.
Animals were allocated equally into 3 groups (5 rats per group). […] The blood samples were immediately centrifuged (10,000× g, 10 min, 4 °C) to obtain plasma samples and was stored at −80 °C.
Determination of the four isoflavones and DZN-d4 (internal standard, IS) in samples were conducted using Acquity UPLC system (Waters Corp., Milford, MA, USA) coupled to Xevo TQ-S triple quadrupole mass spectrometry (Waters Corp., USA) with electrospray (ESI) source. The chromatographic separations of the four isoflavones was performed in a Kinetex C18 column (2.1 × 100 mm, 1.7 μm particle size, Phenomenex, Torrance, CA, USA) at 40 ± 0.5 °C. The mobile phase consisted of water (mobile phase A) and acetonitrile (mobile phase B) with gradient elution at a flow rate of 0.2 mL/min. […] The optimized collision energy of FMN, DZN, DHD, EQL and IS were −22, −38, −22, −15 and −38, respectively. Data acquisition and analysis were achieved using Masslynx 4.1 software (Waters Corp., USA).
The samples were extracted by protein precipitation using methanol. 50 μL of rat samples were added with 10 μL of the IS solution (10 μg/mL of DZN-d4 in 50% methanol) to correct the loss of analytes during sample preparation. 100 μL of methanol was added to the mixed sample, vortexed for 1 min and centrifuged at 15,000× g for 5 min. Then, 5 μL of aliquots were injected into the UPLC-MS/MS system. The method validation was performed according to the FDA guideline for industry bioanalytical method validation.
PK parameters such as the maximum plasma concentration (Cmax) and the time to reach Cmax (Tmax) were determined from plasma concentration-time curve. The linear trapezoidal rule was used to calculate area under the curve to the final measured concentration (AUC0-t), then area from Clast to area expolated to infinity was added to AUC0-t to integrate AUC0-∞. […] The PK analysis was performed using WinNonlin® software (version 8.2, Certara™ Company, Princeton, NJ, USA). Then, a PK model was developed for FMN and its metabolites following oral administration of solution or formulations. The model was implemented in the WinNonlin model with NLME engine and estimated using the naïve-pooled and First Order Conditional Estimation-Extended Least Squares (FOCE-ELS) algorithms. […]
For data set [3] the following is noted: cited from earlier work.
Details of data set [4]: method as in PMID 12714433. The conditions noted are these: humans; cited from earlier work.
Details of data set [5]: method as in PMID 21266188. The conditions noted are these: female rat plasma, cited from earlier work.
For a further data set, the system named is human serum albumin. The conditions noted are these: concentration levels of 3–15 μM DZN, ref Song et al. 23; cited from earlier work.
Setting [6] is: oral 20 mg/kg FMN dissolved in 0.5% CMC-Na, male Sprague Dawley rats.

Like-named read-outs stand apart in the source and are kept apart here.

What is called fraction unbound is the share of the substance not bound to proteins or other matrix. Lower therefore signals little free substance. In the case of `O=C1c2ccc(O)cc2OCC1c1ccc(O)cc1` (stereo not shown) [DHD, Dihydrodaidzein], in data set [1], the fraction unbound at 15 min, 50 ng/mL is 0.118; the fraction unbound at 15 min, 150 ng/mL is 0.126; the fraction unbound at 15 min, 500 ng/mL is 0.12; the free fraction (fraction unbound) at 15 min, 1000 ng/mL was 0.132. Moreover, the “Detection of analyte in rat plasma after oral administration of FMN” value (“Detection of analyte in rat plasma” for short) in data set [2] is given as “not quantitated”.

The Cmax is the maximum level reached in the sampled fluid or tissue. Consider `COc1ccc(-c2coc3cc(O)ccc3c2=O)cc1` [FMN, Formononetin], for which, in data set [3] (2–50 mg/kg FMN orally administered, rats), the “Time at which the peak plasma concentration was reached” value is 0.5 to 1 h. In addition, in data set [3] (FMN solution dissolved in 0.5% CMC-Na, rats), the “oral bioavailability (F)” value is listed as 21.8%. Moreover, the “clearance of FMN” value in data set [3] (intravenous administration, rats) was 83 mL/min/kg. Moreover, in data set [3] (setting [6]), the AUCinf was 0.7577 ± 0.0482 µM·h and the Cmax is 302 ± 35.9 nM. In data set [1], the fraction unbound at 15 min, 50 ng/mL is 0.116; the free fraction (fraction unbound) at 15 min, 150 ng/mL was 0.0664; the fraction unbound at 15 min, 500 ng/mL was 0.145; the fraction unbound at 15 min, 1000 ng/mL is 0.082. For the same compound, the “Detection of analyte in rat plasma” value in data set [2] is listed as “detected”. In data set [4], the FMN excreted intact result was “about 25%”. Further, the Plasma protein binding in data set [5] (50 ng/mL) is recorded as 93.61 ± 0.44%. Further, the Plasma protein binding in data set [5] (150 ng/mL) was 96.14 ± 0.15%.

As for `Oc1ccc([C@H]2COc3cc(O)ccc3C2)cc1` [EQL, Equol], in data set [1], the fraction unbound at 15 min, 150 ng/mL is 0.0131; the free fraction (fraction unbound) at 15 min, 500 ng/mL was 0.0138; the unbound share (fraction unbound) at 15 min, 1000 ng/mL was 0.022. Besides, the “Detection of analyte in rat plasma” value in data set [2] is “not quantitated”.

In data set [1], `O=c1c(-c2ccc(O)cc2)coc2cc(O)ccc12` [DZN, Daidzein] had a fraction unbound at 15 min, 50 ng/mL of 0.0456; a fraction unbound at 15 min, 150 ng/mL of 0.0342; a fraction unbound at 15 min, 500 ng/mL of 0.0569; a fraction unbound at 15 min, 1000 ng/mL of 0.0531. The “Detection of analyte in rat plasma” value in data set [2] is listed as “detected”. Further, the “unbound DZN” value with human serum albumin is 0.889 to 6.398 µM.

(Values after publication PMC9860708, “Parent-Metabolite Pharmacokinetic Modeling of Formononetin and Its Active Metabolites in Rats after Oral Administration of Formononetin Formulations” (Pharmaceutics, 2022).)
